Source: ChEMBL document CHEMBL2401618 (Eur J Med Chem, 2013)
pIC50: −log10 of the molar value.

Assays:
[1] = test system: Plasmodium falciparum; test: Antiplasmodial activity against chloroquine-resistant Plasmodium falciparum FcB1/Columbia infected in human erythrocytes assessed as parasite growth inhibition at 50 ug/ml after 24 hrs by [3H]-hypoxanthine incorporation assay relative to control; assay type: functional; settings: read-out: GI
[2] = test system: Plasmodium falciparum; test: Antiplasmodial activity against chloroquine-resistant Plasmodium falciparum FcB1/Columbia infected in human erythrocytes assessed as parasite growth inhibition at 1 ug/ml after 24 hrs by [3H]-hypoxanthine incorporation assay relative to control; assay type: functional; settings: read-out: GI
[3] = test system: Vero; test: Cytotoxicity against african green monkey Vero cells assessed as growth inhibition after 72 hrs by MTS assay; assay type: cell-based; settings: Chlorocebus sabaeus
[4] = test system: Trypanosoma brucei brucei; test: Antitrypanosomal activity against bloodstream stage of Trypanosoma brucei brucei 93 assessed as parasite growth inhibition at 50 ug/ml after 72 hrs by resazurin reduction assay relative to control; assay type: functional; settings: Trypanosoma brucei, 93, 72 h; read-out: GI
[5] = test system: Trypanosoma brucei brucei; test: Antitrypanosomal activity against bloodstream stage of Trypanosoma brucei brucei 93 assessed as parasite growth inhibition at 1 ug/ml after 72 hrs by resazurin reduction assay relative to control; assay type: functional; settings: Trypanosoma brucei, 93, 72 h; read-out: GI
[6] = test system: Trypanosoma brucei brucei; test: Antitrypanosomal activity against bloodstream stage of Trypanosoma brucei brucei 93 assessed as parasite growth inhibition at 10 ug/ml after 72 hrs by resazurin reduction assay relative to control; assay type: functional; settings: Trypanosoma brucei, 93, 72 h; read-out: GI
[7] = test system: Leishmania donovani; test: Leishmanicidal activity against promastigote stage of Leishmania donovani LV9 assessed as cell viability by MTT assay; assay type: functional, organism-based
[8] = test system: Plasmodium falciparum; test: Antiplasmodial activity against chloroquine-resistant Plasmodium falciparum FcB1/Columbia infected in human erythrocytes assessed as parasite growth inhibition at 10 ug/ml after 24 hrs by [3H]-hypoxanthine incorporation assay relative to control; assay type: functional; settings: read-out: GI
[9] = Safety index, ratio of IC50 for african green monkey Vero cells to IC50 for promastigote stage of Leishmania donovani LV9; assay type: toxicity, cell-based; settings: read-out: Ratio IC50
[10] = test system: Trypanosoma brucei brucei; test: Antitrypanosomal activity against bloodstream stage of Trypanosoma brucei brucei 93 assessed as parasite growth inhibition after 72 hrs by resazurin reduction assay; assay type: functional, organism-based; settings: Trypanosoma brucei, 93, 72 h
[11] = Safety index, ratio of IC50 for african green monkey Vero cells to IC50 for bloodstream stage of Trypanosoma brucei brucei 93; assay type: toxicity, cell-based; settings: read-out: Ratio IC50
[12] = test system: Plasmodium falciparum; test: Antiplasmodial activity against chloroquine-resistant Plasmodium falciparum FcB1/Columbia infected in human erythrocytes assessed as parasite growth inhibition after 24 hrs by [3H]-hypoxanthine incorporation assay; assay type: functional, organism-based
[13] = Cytotoxicity against african green monkey Vero cells assessed as growth inhibition at 10^-5 M after 72 hrs by MTS assay relative to control; assay type: cell-based; settings: chlorocebus sabaeus, read-out: GI
[14] = Safety index, ratio of IC50 for african green monkey Vero cells to IC50 for chloroquine-resistant Plasmodium falciparum FcB1/Columbia infected in human erythrocytes; assay type: toxicity, cell-based; settings: read-out: Ratio IC50

`COc1ccc(C(=O)C2=C(O)[C@]3(CC=C(C)C)C[C@H](CC=C(C)C)[C@@](C)(CCC=C(C)C)[C@](CC=C(C)C)(C2=O)C3=O)cc1OC` gave an inhibition of growth at 50 µg/mL [1] of 99.3%, an inhibition of growth at 1 µg/mL [2] of 13.8% and a pIC50 [3] of 4.66. The inhibition of growth at 50 µg/mL [4] was 94%, the inhibition of growth at 1 µg/mL [5] was 17.7% and the inhibition of growth at 10 µg/mL [6] was 96.3%. For the same molecule, the pIC50 [7] was 4.91, the inhibition of growth at 10 µg/mL [8] was 59.2% and the selectivity ratio [9] was 1.8.

Molecule `CC(C)=CCC[C@]1(C)[C@@H](CC=C(C)C)C[C@]2(CC=C(C)C)C(=O)[C@@]1(CC=C(C)C)C(=O)C(C(=O)c1ccc(OCc3ccccc3)c(OCc3ccccc3)c1)=C2O` has an inhibition of growth at 50 µg/mL [1] of 99.1%, an inhibition of growth at 1 µg/mL [2] of 7.07% and a pIC50 [3] of 4.49. The inhibition of growth at 50 µg/mL [4] was 94.9%, the inhibition of growth at 1 µg/mL [5] was 32.8% and the pIC50 [10] was 5.49. The inhibition of growth at 10 µg/mL [6] was 94.8%, the pIC50 [7] was less than 4.00 and the inhibition of growth at 10 µg/mL [8] was 38.6%. It also gave a selectivity ratio [11] of 10.1 and a selectivity ratio [9] of less than 0.3.

Molecule `CC(C)=CCC[C@]1(C)[C@@H](CC=C(C)C)C[C@]2(CC=C(C)C)C(=O)[C@@]1(CC=C(C)C)C(=O)C(C(=O)c1ccc(OCCC3OCCO3)c(OCCC3OCCO3)c1)=C2O` has a pIC50 [12] of 5.70, an inhibition of growth at 50 µg/mL [1] of 99.6% and an inhibition of growth at 1 µg/mL [2] of 17.6%. It also gave an inhibition at 72 h, 10 µM [13] of 29%, a pIC50 [3] of 4.38 and an inhibition of growth at 50 µg/mL [4] of 95%. It also gave a selectivity ratio [14] of 20.8, an inhibition of growth at 1 µg/mL [5] of 44.8% and a pIC50 [10] of 5.74. It also gave an inhibition of growth at 10 µg/mL [6] of 96.7%, a pIC50 [7] of 4.46 and an inhibition of growth at 10 µg/mL [8] of 94.1%. For the same molecule, the selectivity ratio [11] was 22.8 and the selectivity ratio [9] was 1.2.

With `CC(=O)Oc1cc(C(=O)C2=C(O)[C@]3(CC=C(C)C)C[C@H](CC=C(C)C)[C@@](C)(CCC=C(C)C)[C@](CC=C(C)C)(C2=O)C3=O)ccc1O` the pIC50 [12] was 5.36, the inhibition of growth at 50 µg/mL [1] was 99.1% and the inhibition of growth at 1 µg/mL [2] was 9%. The pIC50 [3] was 5.39, the inhibition of growth at 50 µg/mL [4] was 95.5% and the selectivity ratio [14] was 0.9. It also gave an inhibition of growth at 1 µg/mL [5] of 47%, a pIC50 [10] of 5.75 and an inhibition of growth at 10 µg/mL [6] of 97.3%. It also gave a pIC50 [7] of 5.30, an inhibition of growth at 10 µg/mL [8] of 96.7% and a selectivity ratio [11] of 2.3. The selectivity ratio [9] was 0.8.

`CC(=O)Oc1ccc(C(=O)C2=C(O)[C@]3(CC=C(C)C)C[C@H](CC=C(C)C)[C@@](C)(CCC=C(C)C)[C@](CC=C(C)C)(C2=O)C3=O)cc1OC(C)=O` gave a pIC50 [12] of 5.44, an inhibition of growth at 50 µg/mL [1] of 99.7% and an inhibition of growth at 1 µg/mL [2] of 14.9%. For the same molecule, the pIC50 [3] was 5.42, the inhibition of growth at 50 µg/mL [4] was 93.3% and the selectivity ratio [14] was 1.1. For the same molecule, the inhibition of growth at 1 µg/mL [5] was 38.5%, the pIC50 [10] was 5.53 and the inhibition of growth at 10 µg/mL [6] was 97.2%. It also gave an inhibition of growth at 10 µg/mL [8] of 97.5% and a selectivity ratio [11] of 1.3.

In the case of `CCCC(=O)Oc1ccc(C(=O)C2=C(O)[C@]3(CC=C(C)C)C[C@H](CC=C(C)C)[C@@](C)(CCC=C(C)C)[C@](CC=C(C)C)(C2=O)C3=O)cc1OC(=O)CCC`, the pIC50 [12] was 5.30, the inhibition of growth at 50 µg/mL [1] was 99.7% and the inhibition of growth at 1 µg/mL [2] was -0.82%. The pIC50 [3] was 5.10, the inhibition of growth at 50 µg/mL [4] was 94.9% and the selectivity ratio [14] was 1.6. It also gave an inhibition of growth at 1 µg/mL [5] of 35%, a pIC50 [10] of 5.58 and an inhibition of growth at 10 µg/mL [6] of 96.2%. It also gave a pIC50 [7] of 4.87, an inhibition of growth at 10 µg/mL [8] of 96.5% and a selectivity ratio [11] of 3. The selectivity ratio [9] was 0.6.

`CC(C)=CCC[C@]1(C)[C@@H](CC=C(C)C)C[C@]2(CC=C(C)C)C(=O)[C@@]1(CC=C(C)C)C(=O)C(C(=O)c1ccc(OC(=O)C(C)(C)C)c(OC(=O)C(C)(C)C)c1)=C2O` showed an inhibition of growth at 50 µg/mL [1] of 0.5%, an inhibition of growth at 1 µg/mL [2] of 4.48% and an inhibition at 72 h, 10 µM [13] of 13%. The pIC50 [3] was 4.00, the inhibition of growth at 50 µg/mL [4] was 96.4% and the inhibition of growth at 1 µg/mL [5] was 42.9%. The pIC50 [10] was 5.06, the inhibition of growth at 10 µg/mL [6] was 91.2% and the pIC50 [7] was less than 4.00. The inhibition of growth at 10 µg/mL [8] was 27.2%, the selectivity ratio [11] was 11.5 and the selectivity ratio [9] was less than 1.

In the case of `COCOc1ccc(C(=O)C2=C(O)[C@]3(CC=C(C)C)C[C@H](CC=C(C)C)[C@@](C)(CCC=C(C)C)[C@](CC=C(C)C)(C2=O)C3=O)cc1O` [14-O-METHOXYMETHYL-GUTTIFERONE A], the pIC50 [12] was 5.32, the inhibition of growth at 50 µg/mL [1] was 99.6% and the inhibition of growth at 1 µg/mL [2] was 10.8%. It also gave a pIC50 [3] of 4.89, an inhibition of growth at 50 µg/mL [4] of 92.5% and a selectivity ratio [14] of 2.7. It also gave an inhibition of growth at 1 µg/mL [5] of 13.2%, an inhibition of growth at 10 µg/mL [6] of 96.3% and a pIC50 [7] of 4.83. For the same molecule, the inhibition of growth at 10 µg/mL [8] was 74.8% and the selectivity ratio [9] was 0.9.

Molecule `COc1ccc(C(=O)C2=C(O)[C@]3(CC=C(C)C)C[C@H](CC=C(C)C)[C@@](C)(CCC=C(C)C)[C@](CC=C(C)C)(C2=O)C3=O)cc1O` [14-O-METHYL-GUTTIFERONE A] has a pIC50 [12] of 5.35, an inhibition of growth at 50 µg/mL [1] of 98.9% and an inhibition of growth at 1 µg/mL [2] of 10.7%. It also gave a pIC50 [3] of 4.94, an inhibition of growth at 50 µg/mL [4] of 92.8% and a selectivity ratio [14] of 2.6. It also gave an inhibition of growth at 1 µg/mL [5] of 85.3%, a pIC50 [10] of 5.85 and an inhibition of growth at 10 µg/mL [6] of 96.3%. The pIC50 [7] was 5.03, the inhibition of growth at 10 µg/mL [8] was 75.2% and the selectivity ratio [11] was 8.1. The selectivity ratio [9] was 1.2.

In the case of `C#CCOc1ccc(C(=O)C2=C(O)[C@]3(CC=C(C)C)C[C@H](CC=C(C)C)[C@@](C)(CCC=C(C)C)[C@](CC=C(C)C)(C2=O)C3=O)cc1O` [14-O-PROPARGYL-GUTTIFERONE A], the inhibition of growth at 50 µg/mL [1] was 99.5%, the inhibition of growth at 1 µg/mL [2] was 6.95% and the inhibition of growth at 50 µg/mL [4] was 92.1%. It also gave an inhibition of growth at 1 µg/mL [5] of 20.9%, an inhibition of growth at 10 µg/mL [6] of 96% and a pIC50 [7] of 4.74. The inhibition of growth at 10 µg/mL [8] was 49.4%.

In the case of `CCCOc1ccc(C(=O)C2=C(O)[C@]3(CC=C(C)C)C[C@H](CC=C(C)C)[C@@](C)(CCC=C(C)C)[C@](CC=C(C)C)(C2=O)C3=O)cc1O` [14-O-PROPYL-GUTTIFERONE A], the inhibition of growth at 50 µg/mL [1] was 99.6%, the inhibition of growth at 1 µg/mL [2] was 2.36% and the inhibition of growth at 50 µg/mL [4] was 94.2%. The inhibition of growth at 1 µg/mL [5] was 5.33%, the inhibition of growth at 10 µg/mL [6] was 94.6% and the pIC50 [7] was 4.68. The inhibition of growth at 10 µg/mL [8] was 13.4%.

`C[C@@H]1[C@H](O)[C@@H](C)/C=C/C=C/C=C/C=C/C=C/C=C/C=C/[C@H](O[C@@H]2O[C@H](C)[C@@H](O)[C@H](N)[C@@H]2O)C[C@@H]2O[C@](O)(C[C@@H](O)C[C@@H](O)[C@H](O)CC[C@@H](O)C[C@@H](O)CC(=O)O[C@H]1C)C[C@H](O)[C@H]2C(=O)O` [AMPHOTERICIN B] showed a pIC50 [3] of 6.48, a pIC50 [7] of 7.52 and a selectivity ratio [9] of 11.

Molecule `CCN(CC)CCCC(C)Nc1ccnc2cc(Cl)ccc12` (stereo not drawn) [CHLOROQUINE] has a pIC50 [3] of 4.68.

Molecule `CCCCCCCCCCCCCCCCOP(=O)([O-])OCC[N+](C)(C)C` [MILTEFOSINE] has a pIC50 [3] of 4.19, a pIC50 [7] of 4.79 and a selectivity ratio [9] of 4.
